Test results: PMC6294172 (Stem Cell Reports, 2018)

Assays:
[1] = tested on: CYP3A4
[2] = tested on: neonatal rat small intestinal epithelial cells; settings: ref Booth et al., 1995; Leeper et al., 1998; McDonald and Henning, 1992; cited from earlier work
[3] = tested on: human iPSC-derived intestinal progenitor cells; assay: Percentage of CDX2-positive cells by FACS analysis; assay type: cell-based; settings: LY2090314-treated cells
[4] = tested on: human iPSC (Tic)-derived definitive endoderm cells; assay: CDX2 protein expression by western blotting; assay type: cell-based; settings: 4 days treatment
[5] = tested on: human iPSC (Tic)-derived definitive endoderm cells; assay: Intestinal progenitor cell differentiation; assay type: cell-based; settings: 4 days
[6] = tested on: small intestinal epithelial cells; settings: ref Booth et al., 1995; Leeper et al., 1998; McDonald and Henning, 1992; cited from earlier work
[7] = tested on: JAK/STAT signals; settings: ref Liu et al., 2011; cited from earlier work
[8] = molecular target: T1, PEPT1 (Homo sapiens, UniProt P46059); assay: PEPT1 permeability test with glycylsarcosine across hiPS-SIECs monolayer; assay type: in vitro ADME; settings: apical to basolateral, 100 μM captopril
T1 sequence (P46059 1-708): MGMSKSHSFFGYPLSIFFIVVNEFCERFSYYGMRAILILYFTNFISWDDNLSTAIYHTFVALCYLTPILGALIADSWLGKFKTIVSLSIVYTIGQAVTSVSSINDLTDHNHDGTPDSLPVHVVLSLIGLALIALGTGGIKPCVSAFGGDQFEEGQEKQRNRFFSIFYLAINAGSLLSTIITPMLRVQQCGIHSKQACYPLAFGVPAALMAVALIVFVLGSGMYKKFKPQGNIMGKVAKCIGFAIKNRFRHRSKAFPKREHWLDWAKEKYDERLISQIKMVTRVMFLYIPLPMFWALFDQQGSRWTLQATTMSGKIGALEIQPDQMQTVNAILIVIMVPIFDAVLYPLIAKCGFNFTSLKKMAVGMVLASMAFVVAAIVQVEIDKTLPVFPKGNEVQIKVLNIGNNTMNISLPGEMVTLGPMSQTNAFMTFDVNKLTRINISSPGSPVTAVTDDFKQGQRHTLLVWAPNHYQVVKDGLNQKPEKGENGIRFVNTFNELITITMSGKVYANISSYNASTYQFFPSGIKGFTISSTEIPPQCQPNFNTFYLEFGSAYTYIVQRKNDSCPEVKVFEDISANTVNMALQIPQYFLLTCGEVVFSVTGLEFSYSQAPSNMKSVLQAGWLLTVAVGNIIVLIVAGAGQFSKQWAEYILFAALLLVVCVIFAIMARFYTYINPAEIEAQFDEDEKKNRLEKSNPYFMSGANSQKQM

[9] = molecular target: T1, PEPT1; assay: Peptide-uptake analysis of D-Ala-Leu-Lys-AMCA in hiPS-SIECs; assay type: cell-based; settings: 100 μM captopril, 25 μM D-Ala-Leu-Lys-AMCA for 4 hr
[10] = tested on: hiPS-SIECs monolayer; assay: TEER measurement of hiPS-SIECs monolayer; assay type: cell-based, human; settings: 10 mM C10, hiPS-SIECs monolayer
[11] = tested on: hiPS-SIECs monolayer; assay: LY and FD4 permeability tests across hiPS-SIECs monolayer; settings: treatment with C10, hiPS-SIECs monolayer
[12] = molecular target: T2, CES2 (Homo sapiens, UniProt O00748); assay: CES2 activity in hiPS-SIECs with fluorescein diacetate substrate; settings: 1 mM loperamide, 10 μM fluorescein diacetate substrate
T2 sequence (O00748 27-559): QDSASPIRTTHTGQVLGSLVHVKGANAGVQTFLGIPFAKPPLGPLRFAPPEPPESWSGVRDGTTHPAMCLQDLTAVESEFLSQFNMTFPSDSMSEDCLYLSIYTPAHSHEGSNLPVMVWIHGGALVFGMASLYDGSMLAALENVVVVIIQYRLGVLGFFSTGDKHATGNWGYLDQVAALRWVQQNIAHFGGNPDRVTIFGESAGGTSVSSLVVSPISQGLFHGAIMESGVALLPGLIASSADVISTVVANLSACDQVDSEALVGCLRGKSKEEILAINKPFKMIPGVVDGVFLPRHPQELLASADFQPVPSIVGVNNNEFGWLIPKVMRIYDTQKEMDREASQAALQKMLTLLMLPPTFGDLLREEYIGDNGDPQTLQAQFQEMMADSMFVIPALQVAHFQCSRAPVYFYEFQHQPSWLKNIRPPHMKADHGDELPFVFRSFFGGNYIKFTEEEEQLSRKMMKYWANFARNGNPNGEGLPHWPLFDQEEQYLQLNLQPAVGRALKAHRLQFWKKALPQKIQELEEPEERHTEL

[13] = 20 nM, compared with definitive endoderm cells (DECs)

C=C1/C(=C\C=C2/CCC[C@]3(C)[C@@H]([C@H](C)CCCC(C)(C)O)CC[C@@H]23)C[C@@H](O)C[C@@H]1O [VD3, 1α,25-dihydroxyvitamin D3]
CYP3A4 expression levels [1]: increased

C[C@@H]1C[C@H]2[C@@H]3CCC4=CC(=O)C=C[C@]4(C)[C@@]3(F)[C@@H](O)C[C@]2(C)[C@@]1(O)C(=O)CO [dexamethasone]
maturation in neonatal rat small intestinal epithelial cells [2]: promotes

O=C1NC(=O)C(c2cnc3ccccn23)=C1c1cn2c3c(cc(F)cc13)CN(C(=O)N1CCCCC1)CC2 [LY2090314]
percentage of CDX2-positive cells (FACS) [3]: approximately 50% | CDX2 protein expression level [4]: increased | expression level of hepatic progenitor marker AFP [5, 13]: lower | expression level of intestinal progenitor cell marker CDX2 [5, 13]: increased | expression level of pancreatic progenitor cell marker PDX1 [5, 13]: lower | expression levels of CDX2, concentration dependence ([5]; 1-20 nM, relative to DMSO-treated cells): increased in a concentration-dependent manner

IGF-1: insulin-like growth factor 1, used at 20 ng/mL
proliferation of small intestinal epithelial cells [6]: promotes

O=C1Nc2cc(Br)ccc2/C1=C1/Nc2ccccc2/C1=N\O [BIO, (2′Z,3′E)-6-bromoindirubin-3′-oxime]
effect on JAK/STAT signals (off-target) [7]: inhibition

C[C@H](CS)C(=O)N1CCC[C@H]1C(=O)O [captopril]
Papp value of glycylsarcosine [8]: significantly decreased | uptake of D-Ala-Leu-Lys-AMCA in presence of inhibitor [9]: inhibited

CCCCCCCCCC(=O)O [C10, capric acid]
TEER value [10]: significantly decreased | FD4 apparent membrane permeability coefficient (Papp) [11]: increased | LY apparent membrane permeability coefficient (Papp) [11]: increased

CN(C)C(=O)C(CCN1CCC(O)(c2ccc(Cl)cc2)CC1)(c1ccccc1)c1ccccc1 [loperamide]
CES2 activity in the hiPS-SIECs [12]: significantly inhibited
